According to ChEMBL document CHEMBL2034968, “Discovery of novel urea-based hepatitis C protease inhibitors with high potency against protease-inhibitor-resistant mutants” (J Med Chem, 2012):
pEC50, pIC50: −log10 of the molar value.

Experiments:
[1] = tested on: Hepatitis C virus; test: Resistance index, ratio of EC50 for Hepatitis C virus subtype 1b harboring protease R155K mutant to EC50 for wild type Hepatitis C virus subtype 1b; type: functional, Hepacivirus hominis, genotype 1b
[2] = Inhibition of HCV 1a protease 1a domain; set-up: species or system Hepacivirus hominis
[3] = tested on: Hepatitis C virus; test: Antiviral activity against Hepatitis C virus subtype 1b by stable replicon assay; type: functional, organism-based, Hepacivirus hominis; conditions: genotype 1b
[4] = tested on: Hepatitis C virus; test: Antiviral activity against Hepatitis C virus subtype 1a by stable replicon assay; type: functional, organism-based, Hepacivirus hominis
[5] = tested on: Hepatitis C virus; test: Antiviral activity against Hepatitis C virus subtype 1b harboring protease D168V mutant by transient replicon assay; type: functional, organism-based, Hepacivirus hominis; conditions: genotype 1b
[6] = tested on: Hepatitis C virus; test: Antiviral activity against Hepatitis C virus subtype 1b harboring protease D168A mutant by transient replicon assay; type: functional, organism-based, Hepacivirus hominis; conditions: genotype 1b
[7] = tested on: Hepatitis C virus; test: Antiviral activity against Hepatitis C virus subtype 1b harboring protease A156V mutant by transient replicon assay; type: functional, organism-based, Hepacivirus hominis; conditions: genotype 1b
[8] = tested on: Hepatitis C virus; test: Antiviral activity against Hepatitis C virus subtype 1b harboring protease A156T mutant by transient replicon assay; type: functional, organism-based, Hepacivirus hominis; conditions: genotype 1b
[9] = tested on: Hepatitis C virus; test: Antiviral activity against Hepatitis C virus subtype 1b harboring protease A156S mutant by transient replicon assay; type: functional, organism-based, Hepacivirus hominis; conditions: genotype 1b
[10] = tested on: Hepatitis C virus; test: Antiviral activity against wild type Hepatitis C virus subtype 1b by transient replicon assay; type: functional, organism-based, Hepacivirus hominis; conditions: genotype 1b
[11] = tested on: Hepatitis C virus; test: Antiviral activity against Hepatitis C virus subtype 1b harboring protease R155K mutant by transient replicon assay; type: functional, organism-based, Hepacivirus hominis; conditions: genotype 1b
[12] = tested on: Hepatitis C virus; test: Resistance index, ratio of EC50 for Hepatitis C virus subtype 1b harboring protease D168A mutant to EC50 for wild type Hepatitis C virus subtype 1b; type: functional, Hepacivirus hominis, genotype 1b
[13] = tested on: Hepatitis C virus; test: Resistance index, ratio of EC50 for Hepatitis C virus subtype 1b harboring protease D168V mutant to EC50 for wild type Hepatitis C virus subtype 1b; type: functional, Hepacivirus hominis, genotype 1b
[14] = tested on: Rattus norvegicus; test: Hepatic clearance in rat at 1 mg/kg, iv; type: ADME, organism-based, Liver; set-up: dose 1 mg/kg, route intravenous; conditions: in vivo
[15] = (§1) AUC in rat at 1 mg/kg, iv; type: ADME, organism-based, Plasma; set-up: dose 1 mg/kg, route intravenous; conditions: plasma
[16] = (§2) AUC in rat at 5 mg/kg, po; type: ADME, organism-based, Plasma; set-up: dose 5 mg/kg, route oral; conditions: plasma
[17] = Terminal half life in rat at 5 mg/kg, po; type: ADME, organism-based; set-up: dose 5 mg/kg, route oral; conditions: in vivo, read-out: beta t1/2 (converted)
[18] = Maximum drug absorption in rat at 5 mg/kg, po; type: ADME, organism-based; set-up: dose 5 mg/kg, route oral; conditions: in vivo, read-out: Drug absorption
[19] = (§3) Oral bioavailability in rat at 5 mg/kg; type: ADME, organism-based; conditions: in vivo
[20] = tested on: Rattus norvegicus; test: Dose normalized AUC in rat at 5 mg/kg, po; type: ADME, organism-based; set-up: dose 5 mg/kg, route oral; conditions: in vivo
[21] = tested on: Hepatitis C virus; test: Ratio of EC50 for danoprevir to EC50 for compound against Hepatitis C virus subtype 1b harboring protease D168V mutant by transient replicon assay; type: functional, Hepacivirus hominis, genotype 1b
[22] = tested on: Hepatitis C virus; test: Ratio of EC50 for danoprevir to EC50 for compound against Hepatitis C virus subtype 1b harboring protease R155K mutant by transient replicon assay; type: functional, Hepacivirus hominis, genotype 1b
[23] = tested on: Rattus norvegicus; test: as §1; type: ADME, organism-based, Plasma; set-up: dose 1 mg/kg, route intravenous; conditions: in vivo
[24] = tested on: Rattus norvegicus; test: as §2; type: ADME, organism-based, Plasma; set-up: dose 5 mg/kg, route oral; conditions: in vivo
[25] = tested on: Rattus norvegicus; test: as §3; type: ADME, organism-based; conditions: in vivo
[26] = AUC in rat liver at 5 mg/kg, po; type: ADME, organism-based; set-up: dose 5 mg/kg, route oral
[27] = Terminal half life in rat liver at 5 mg/kg, po; type: ADME, organism-based; set-up: dose 5 mg/kg, route oral; conditions: read-out: beta t1/2 (converted)
[28] = tested on: Liver; test: Ratio of drug level in liver to plasma in rat at 5 mg/kg, po; type: ADME, organism-based; set-up: dose 5 mg/kg, route oral; conditions: other tissue
[29] = tested on: Hepatitis C virus; test: Ratio of EC50 for TMC-435350 to EC50 for compound against wild type Hepatitis C virus subtype 1b by transient replicon assay; type: functional, Hepacivirus hominis, genotype 1b
[30] = tested on: Hepatitis C virus; test: Ratio of EC50 for TMC-435350 to EC50 for compound against Hepatitis C virus subtype 1b harboring protease A156S mutant by transient replicon assay; type: functional, Hepacivirus hominis, genotype 1b
[31] = tested on: Hepatitis C virus; test: Ratio of EC50 for TMC-435350 to EC50 for compound against Hepatitis C virus subtype 1b harboring protease A156T mutant by transient replicon assay; type: functional, Hepacivirus hominis, genotype 1b
[32] = tested on: Hepatitis C virus; test: Ratio of EC50 for TMC-435350 to EC50 for compound against Hepatitis C virus subtype 1b harboring protease A156V mutant by transient replicon assay; type: functional, Hepacivirus hominis, genotype 1b
[33] = tested on: Hepatitis C virus; test: Ratio of EC50 for TMC-435350 to EC50 for compound against Hepatitis C virus subtype 1b harboring protease D168A mutant by transient replicon assay; type: functional, Hepacivirus hominis, genotype 1b
[34] = tested on: Hepatitis C virus; test: Ratio of EC50 for TMC-435350 to EC50 for compound against Hepatitis C virus subtype 1b harboring protease D168V mutant by transient replicon assay; type: functional, Hepacivirus hominis, genotype 1b
[35] = tested on: Hepatitis C virus; test: Ratio of EC50 for TMC-435350 to EC50 for compound against Hepatitis C virus subtype 1b harboring protease R155K mutant by transient replicon assay; type: functional, Hepacivirus hominis, genotype 1b
[36] = tested on: Hepatitis C virus; test: Ratio of EC50 for danoprevir to EC50 for compound against wild type Hepatitis C virus subtype 1b by transient replicon assay; type: functional, Hepacivirus hominis, genotype 1b
[37] = tested on: Hepatitis C virus; test: Ratio of EC50 for danoprevir to EC50 for compound against Hepatitis C virus subtype 1b harboring protease A156S mutant by transient replicon assay; type: functional, Hepacivirus hominis, genotype 1b
[38] = tested on: Hepatitis C virus; test: Ratio of EC50 for danoprevir to EC50 for compound against Hepatitis C virus subtype 1b harboring protease A156T mutant by transient replicon assay; type: functional, Hepacivirus hominis, genotype 1b
[39] = tested on: Hepatitis C virus; test: Ratio of EC50 for danoprevir to EC50 for compound against Hepatitis C virus subtype 1b harboring protease A156V mutant by transient replicon assay; type: functional, Hepacivirus hominis, genotype 1b
[40] = tested on: Hepatitis C virus; test: Ratio of EC50 for danoprevir to EC50 for compound against Hepatitis C virus subtype 1b harboring protease D168A mutant by transient replicon assay; type: functional, Hepacivirus hominis, genotype 1b

Structure (SMILES)	Ratio EC50 [1]	pIC50 [2]	pEC50 [3]	pEC50 [4]	pEC50 [5]	pEC50 [6]	pEC50 [7]	pEC50 [8]	pEC50 [9]	pEC50 [10]	pEC50 [11]	Ratio EC50 [12]	Ratio EC50 [13]	CLH [14] [mL/min/kg]	half-life [17] [h]	Fa [18] [%]	AUC/dose [20] [kg·µg·h/mL/mg]	also measured
CCN(C)C(=O)N[C@H]1CCCCC/C=C\[C@@H]2C[C@@]2(C(=O)NS(=O)(=O)C2CC2)NC(=O)[C@@H]2C[C@@H](Oc3cc(-c4nc(C(C)C)cs4)nc4c(C)c(OC)ccc34)CN2C1=O	<1000	8.22	9.40	9.15	6.83	7.22	7.96	8.52	9.30	9.70	7.60	<1000	<1000	–	–	–	–	–
COc1ccc2c(O[C@@H]3C[C@H]4C(=O)N[C@]5(C(=O)NS(=O)(=O)C6CC6)C[C@H]5/C=C\CCCCC[C@H](NC(=O)N5CCC5)C(=O)N4C3)cc(-c3nc(C(C)C)cs3)nc2c1C	<1000	8.40	9.40	9.10	7.01	7.22	8.10	8.70	9.70	10.00	7.70	<1000	<1000	160.3	2.26	7.6	0.008	AUC [15]: 107 ng·h/mL; AUC [16]: 40.5 ng·h/mL; bioavailability [19]: 4.2%
COc1ccc2c(O[C@@H]3C[C@H]4C(=O)N[C@]5(C(=O)NS(=O)(=O)C6CC6)C[C@H]5/C=C\CCCCC[C@H](NC(=O)N5CC(F)(F)C5)C(=O)N4C3)cc(-c3nc(C(C)C)cs3)nc2c1C	<1000	8.70	9.30	9.10	7.24	7.82	8.22	9.00	–	10.00	7.85	<1000	<1000	91.03	0.806	6.8	0.014	AUC [15]: 203 ng·h/mL; AUC [16]: 69 ng·h/mL; bioavailability [19]: 4%
COc1ccc2c(O[C@@H]3C[C@H]4C(=O)N[C@]5(C(=O)NS(=O)(=O)C6CC6)C[C@H]5/C=C\CCCCC[C@H](NC(=O)N5CCCCC5)C(=O)N4C3)cc(-c3nc(C(C)C)cs3)nc2c1C	–	8.30	9.30	9.40	7.10	7.49	8.15	8.70	10.00	10.40	8.22	–	–	83.4	1.16	20	0.053	Ratio EC50 [21]: 0.3; Ratio EC50 [22]: 14; AUC [23]: 268 ng·h/mL; AUC [24]: 266 ng·h/mL; F [25]: 9.4%; AUC [26]: 308000 ng·h/mL; half-life [27]: 8.1 h; Ratio [28]: 1158; Ratio EC50 [29]: 23; Ratio EC50 [30]: 3.5; Ratio EC50 [31]: 43; Ratio EC50 [32]: 49; Ratio EC50 [33]: 5; Ratio EC50 [34]: 2; Ratio EC50 [35]: 9; Ratio EC50 [36]: 5; Ratio EC50 [37]: 21; Ratio EC50 [38]: 5; Ratio EC50 [39]: 1; Ratio EC50 [40]: 1
COc1ccc2c(O[C@@H]3C[C@H]4C(=O)N[C@]5(C(=O)NS(=O)(=O)C6CC6)C[C@H]5/C=C\CCCCC[C@H](NC(=O)N(C)C(C)C)C(=O)N4C3)cc(-c3nc(C4CC4)cs3)nc2c1C	<1000	9.10	9.40	9.52	7.43	7.77	8.30	8.70	10.30	10.40	8.30	<1000	<1000	–	–	–	–	–
CCN(C(=O)N[C@H]1CCCCC/C=C\[C@@H]2C[C@@]2(C(=O)NS(=O)(=O)C2CC2)NC(=O)[C@@H]2C[C@@H](Oc3cc(-c4nc(C5CC5)cs4)nc4c(C)c(OC)ccc34)CN2C1=O)C(C)C	<1000	9.00	9.40	9.40	6.82	7.30	7.62	8.10	9.15	9.70	7.80	<1000	<1000	–	–	–	–	–
COc1ccc2c(O[C@@H]3C[C@H]4C(=O)N[C@]5(C(=O)NS(=O)(=O)C6CC6)C[C@H]5/C=C\CCCCC[C@H](NC(=O)N(C(C)C)C(C)C)C(=O)N4C3)cc(-c3nc(C4CC4)cs3)nc2c1C	<1000	8.70	9.05	9.15	6.98	7.19	7.37	7.96	9.22	9.70	7.34	<1000	<1000	–	–	–	–	–
COc1ccc2c(O[C@@H]3C[C@H]4C(=O)N[C@@]5(C(=O)NS(=O)(=O)C6CC6)C[C@@H]5/C=C/CCCCN(C)C(=O)[C@@H]4C3)cc(-c3nc(C(C)C)cs3)nc2c1C	0.3	8.00	9.00	8.70	6.85	6.83	6.46	7.07	9.52	9.00	7.25	0.3	0.3	–	–	–	–	–
CC(C)(C)OC(=O)N[C@H]1CCCCC/C=C\[C@@H]2C[C@@]2(C(=O)NS(=O)(=O)C2CC2)NC(=O)[C@@H]2C[C@@H](OC(=O)N3Cc4cccc(F)c4C3)CN2C1=O [DANOPREVIR]	10	9.15	8.82	8.70	7.59	7.41	8.10	8.00	8.70	9.70	7.09	10	10	–	–	–	–	–
CCC[C@H](NC(=O)[C@@H]1[C@H]2CCC[C@H]2CN1C(=O)[C@@H](NC(=O)[C@@H](NC(=O)c1cnccn1)C1CCCCC1)C(C)(C)C)C(=O)C(=O)NC1CC1 [TELAPREVIR]	6	6.30	6.43	6.27	6.68	6.20	5.71	5.94	6.05	7.47	5.75	6	6	–	–	–	–	–
